Consider 52 compounds from patent publication US20260325540A1 (priority 2023, published 2026).

Structures are written as SMILES. pIC50: −log10 of the molar value.

For orientation: pIC50 means −log10 of the IC50, conventionally taken in molar units. A lower pIC50 goes with a large IC50.

The target in the experiment is HCoV-229E 3CL protease (Human coronavirus 229E, UniProt P0C6U2). Put plainly: FRET based protease assay, HCoV-229E 3CL. The following applies: 229E IC50, 6 nM H229E-CoV Chis-3CLpro, 6 μM peptide 1 substrate, 25° C., 1.5 hrs, pH 7.5. It is filed as biochemical.
Sequence of HCoV-229E 3CL protease (P0C6U2 2966-3267): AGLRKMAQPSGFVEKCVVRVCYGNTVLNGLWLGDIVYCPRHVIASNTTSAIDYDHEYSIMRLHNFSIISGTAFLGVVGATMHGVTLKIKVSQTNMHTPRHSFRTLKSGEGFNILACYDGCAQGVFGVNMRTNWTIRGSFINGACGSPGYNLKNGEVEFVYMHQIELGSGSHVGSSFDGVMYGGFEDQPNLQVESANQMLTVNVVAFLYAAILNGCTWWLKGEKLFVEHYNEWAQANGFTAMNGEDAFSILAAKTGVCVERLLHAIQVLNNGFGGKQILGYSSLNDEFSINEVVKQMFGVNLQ
Take `CC(C)C[C@@H]1NC(=O)[C@@H](Cc2ccccc2)CCCCC[C@H]2CNC(=O)[C@H]2C[C@@H](C#N)NC1=O` [Example 50]: the pIC50 is 4.70 to 6.00. For `CC(C)C[C@@H]1NC(=O)CCCCCC[C@@H]2CNCC(=O)[C@H]2C[C@@H](C=O)NC1=O` [Example 51], the pIC50 was 4.70 to 6.00. In the case of `CC(C)C[C@@H]1NC(=O)CCCCCC[C@H]2CNCC(=O)[C@@H]2C[C@@H](C=O)NC1=O` [Example 52] it was 6.00 to 7.00; in that of `CC(C)(C)C[C@@H]1NC(=O)[C@@H](NC(=O)C(C)(C)C)CCCC[C@H]2CNC(=O)[C@H]2C[C@@H](C#N)NC1=O` [Example 53], greater than 7.00. In the case of `CC(C)C[C@@H]1NC(=O)[C@@H](NC(=O)C(C)(C)C)CCCC[C@H]2CNC(=O)[C@@H]2C[C@@H](C#N)NC1=O` [Example 54] it was 4.70 to 6.00; in that of `CC(C)(C)C(=O)N[C@H]1CCCC[C@H]2CNC(=O)[C@H]2C[C@@H](C#N)NC(=O)[C@@H]2[C@@H]3[C@H](CN2C1=O)C3(C)C` [Example 55], greater than 7.00.

With `CC(C)C[C@@H]1NC(=O)[C@@H](NC(=O)OC(C)(C)C)CCCC[C@H]2CNC(=O)[C@H]2C[C@@H](C#N)NC1=O` [Example 56], the pIC50 is greater than 7.00. In the case of `CC(C)C[C@H]1C(=O)N[C@H](C#N)C[C@@H]2C(=O)NC[C@@H]2CCCC[C@H](NC(=O)C(C)(C)C)C(=O)N1C` [Example 57] it was 6.00 to 7.00; in that of `CC(C)C[C@@H]1NC(=O)[C@@H](NC(=O)C(C)(C)C)CC/C=C/[C@H]2CNC(=O)[C@H]2C[C@@H](C#N)NC1=O` [Example 58], greater than 7.00; in that of `CC(C)C[C@@H]1NC(=O)[C@@H](NC(=O)C(C)(C)C)CC/C=C\[C@H]2CNC(=O)[C@H]2C[C@@H](C#N)NC1=O` [Example 59], 6.00 to 7.00. In the case of `CC(C)(C)C[C@@H]1NC(=O)[C@@H](NC(=O)OC(C)(C)C)CCCC[C@H]2CNC(=O)[C@H]2C[C@@H](C#N)NC1=O` [Example 60] it was greater than 7.00.

Turning to `CC(C)(C)C(=O)N[C@H]1CC/C=C/[C@H]2CNC(=O)[C@H]2C[C@@H](C#N)NC(=O)[C@@H]2[C@@H]3[C@H](CN2C1=O)C3(C)C` [Example 61], the pIC50 was greater than 7.00. For `CC1(C)[C@@H]2[C@H]3C(=O)N[C@H](C#N)C[C@@H]4C(=O)NC[C@@H]4CCCC[C@H](NC(=O)C4CC(F)(F)C4)C(=O)N3C[C@@H]21` [Example 62] the value was greater than 7.00; for `CC(C)(C)C(=O)N[C@H]1C/C=C/[C@H]2CNC(=O)[C@H]2C[C@@H](C#N)NC(=O)[C@@H]2[C@@H]3[C@H](CN2C1=O)C3(C)C` [Example 63], greater than 7.00. `CC(C)(C)C(=O)N[C@H]1C/C=C\[C@H]2CNC(=O)[C@H]2C[C@@H](C#N)NC(=O)[C@@H]2[C@@H]3[C@H](CN2C1=O)C3(C)C` [Example 64] had a negative logarithm of the IC50 (pIC50) of 4.70 to 6.00. For `CC(C)(C)C(=O)N[C@H]1CCCC[C@H]2CCNC(=O)[C@@H]2C[C@@H](C#N)NC(=O)[C@@H]2[C@@H]3[C@H](CN2C1=O)C3(C)C` [Example 65] the value was 4.70 to 6.00; for `CC(C)(C)C(=O)N[C@H]1CCC[C@H]2CCNC(=O)[C@@H]2C[C@@H](C#N)NC(=O)[C@@H]2[C@@H]3[C@H](CN2C1=O)C3(C)C` [Example 66], 6.00 to 7.00; for `CC(C)(C)C(=O)N[C@H]1CCCC[C@H]2CNC(=O)[C@@H]2C[C@@H](C#N)NC(=O)[C@@H]2[C@@H]3[C@H](CN2C1=O)C3(C)C` [Example 67], 6.00 to 7.00. Take `CC1(C)[C@@H]2[C@H]3C(=O)N[C@H](C#N)C[C@@H]4C(=O)NC[C@@H]4CCCC[C@H](NC(=O)C4CCC(F)(F)CC4)C(=O)N3C[C@@H]21` [Example 68]: the pIC50 is greater than 7.00. In the case of `CC(C)(C)C(=O)N[C@H]1CCCC[C@H]2CCNC(=O)[C@H]2C[C@@H](C#N)NC(=O)[C@@H]2[C@@H]3[C@H](CN2C1=O)C3(C)C` [Example 69] it was greater than 7.00; in that of `CC(C)(C)C(=O)N[C@H]1CCCC[C@H]2CNC(=O)[C@H]2C[C@@H](C#N)NC(=O)[C@@H]2[C@H]3CCC[C@H]3CN2C1=O` [Example 70], greater than 7.00. Consider `CC(C)(C)C(=O)N[C@H]1CCCC[C@H]2CNC(=O)[C@H]2C[C@@H](C#N)NC(=O)[C@@H]2CCCCN2C1=O` [Example 71], for which the negative-log IC50 (pIC50) is 4.70 to 6.00.

The compound `CC(C)(C)OC(=O)N[C@H]1CCCC[C@H]2CNC(=O)[C@H]2C[C@@H](C#N)NC(=O)[C@@H]2[C@@H]3[C@H](CN2C1=O)C3(C)C` [Example 72] showed a pIC50 greater than 7.00. On to `CC(C)(C)CC(=O)N[C@H]1CCCC[C@H]2CNC(=O)[C@H]2C[C@@H](C#N)NC(=O)[C@@H]2[C@@H]3[C@H](CN2C1=O)C3(C)C` [Example 73], for which the pIC50 was greater than 7.00. The compound `CC(C)(C)C(=O)N[C@H]1CCCC[C@H]2CNC(=O)[C@H]2C[C@@H](C#N)NC(=O)[C@@H]2CCCN2C1=O` [Example 74] showed a pIC50 of 4.70 to 6.00.

In turn, `CC1(C)[C@@H]2[C@H]3C(=O)N[C@H](C#N)C[C@@H]4C(=O)NC[C@@H]4CCCC[C@H](NC(=O)OC4CCCC4)C(=O)N3C[C@@H]21` [Example 75] showed a pIC50 greater than 7.00. In the case of `CC1(C)[C@@H]2[C@H]3C(=O)N[C@H](C#N)C[C@@H]4C(=O)NC[C@@H]4CCCC[C@H](NC(=O)C4CCC4)C(=O)N3C[C@@H]21` [Example 76] it was greater than 7.00; in that of `CC1(C)[C@@H]2[C@H]3C(=O)N[C@H](C#N)C[C@@H]4C(=O)NC[C@@H]4CCCC[C@H](NC(=O)C4CCCCC4)C(=O)N3C[C@@H]21` [Example 77], greater than 7.00.

`CN1C(=O)[C@@H](NC(=O)C(C)(C)C)CCCC[C@H]2CNC(=O)[C@H]2C[C@@H](C#N)NC(=O)[C@@H]1CC(C)(C)C` [Example 78] gave a pIC50 of 6.00 to 7.00.

Turning to `CC(C)(C)OC(=O)N[C@H]1CCCC[C@H]2CNC(=O)[C@H]2C[C@@H](C#N)NC(=O)[C@@H]2[C@H]3CCC[C@H]3CN2C1=O` [Example 79], the pIC50 was greater than 7.00. `CC(C)(C)C(=O)N[C@H]1CCCC[C@H]2CNC(=O)[C@H]2C[C@@H](C#N)NC(=O)[C@H](C2CCCC2)NC1=O` [Example 80] had a pIC50 of 6.00 to 7.00. For `CC1(C)[C@@H]2[C@H]3C(=O)N[C@H](C#N)C[C@@H]4C(=O)NC[C@@H]4CCCC[C@H](NC(=O)C4CC5(CCC5)C4)C(=O)N3C[C@@H]21` (stereo partly shown) [Example 81] the value was greater than 7.00; for `CC1(C)[C@@H]2[C@H]3C(=O)N[C@H](C#N)C[C@@H]4C(=O)NC[C@@H]4CCCC[C@H](NC(=O)c4ccc(F)cc4)C(=O)N3C[C@@H]21` [Example 82], greater than 7.00; for `CC1(C)[C@@H]2[C@H]3C(=O)N[C@H](C#N)C[C@@H]4C(=O)NC[C@@H]4/C=C/CC[C@H](NC(=O)C4CC(F)(F)C4)C(=O)N3C[C@@H]21` [Example 83], greater than 7.00. The compound `N#C[C@@H]1C[C@@H]2C(=O)NC[C@@H]2CCCC[C@H](NC(=O)C2CC(F)(F)C2)C(=O)N2C[C@@H]3CCC[C@@H]3[C@H]2C(=O)N1` [Example 84] had a negative logarithm of the IC50 (pIC50) greater than 7.00. With `CC1(C)[C@@H]2[C@H]3C(=O)N[C@H](C#N)C[C@@H]4C(=O)NC[C@@H]4CCCC[C@H](NC(=O)C4CCOCC4)C(=O)N3C[C@@H]21` [Example 85], the pIC50 was greater than 7.00. Compound `CC(C)(C)C(=O)N[C@H]1CC/C=C/[C@H]2CNC(=O)[C@H]2C[C@@H](C#N)NC(=O)[C@@H]2[C@H]3CCC[C@H]3CN2C1=O` [Example 86] showed a pIC50 greater than 7.00. For `CC1(C)[C@@H]2[C@H]3C(=O)N[C@H](C#N)C[C@@H]4C(=O)NC[C@@H]4CCCC[C@H](NC(=O)C(F)(F)F)C(=O)N3C[C@@H]21` [Example 87] the value was greater than 7.00; for `N#C[C@@H]1C[C@@H]2C(=O)NC[C@@H]2CCCC[C@H](NC(=O)C(F)(F)F)C(=O)N2C[C@@H]3CCC[C@@H]3[C@H]2C(=O)N1` [Example 88], greater than 7.00. Consider `CC1(C)[C@@H]2[C@H]3C(=O)N[C@H](C#N)C[C@@H]4C(=O)NC[C@@H]4CCCC[C@H](NC(=O)CC4CC(F)(F)C4)C(=O)N3C[C@@H]21` [Example 89], for which the pIC50 was greater than 7.00. In the case of `CC1(C)[C@@H]2[C@H]3C(=O)N[C@H](C#N)C[C@@H]4C(=O)NC[C@@H]4CCCC[C@H](NC(=O)CC4CCCC4)C(=O)N3C[C@@H]21` [Example 90], the pIC50 was greater than 7.00.

On to `CC1(C)[C@@H]2[C@H]3C(=O)N[C@H](C#N)C[C@@H]4C(=O)NC[C@@H]4CCCC[C@H](NC(=O)c4ccncn4)C(=O)N3C[C@@H]21` [Example 91], for which the pIC50 is greater than 7.00.

As to `CC(C)(C)OC(=O)N[C@H]1CC/C=C/[C@H]2CNC(=O)[C@H]2C[C@@H](C#N)NC(=O)[C@@H]2[C@@H]3[C@H](CN2C1=O)C3(C)C` [Example 92], the pIC50 was greater than 7.00. For `N#C[C@@H]1C[C@@H]2C(=O)NCC[C@@H]2CCCC[C@H](NC(=O)OC2CCCC2)C(=O)N2C[C@@H]3CCC[C@@H]3[C@H]2C(=O)N1` [Example 93], the pIC50 is greater than 7.00. Compound `N#C[C@@H]1C[C@@H]2C(=O)NC[C@@H]2CCCC[C@H](NC(=O)OC2CCCC2)C(=O)N2C[C@@H]3CCC[C@@H]3[C@H]2C(=O)N1` [Example 94] showed a pIC50 greater than 7.00.

`CC(C)(C)CC(=O)N[C@H]1CCCC[C@H]2CCNC(=O)[C@H]2C[C@@H](C#N)NC(=O)[C@@H]2[C@H]3CCC[C@H]3CN2C1=O` [Example 95]: the pIC50 is greater than 7.00. In the case of `CC(C)(C)OC(=O)N[C@H]1CC/C=C\[C@H]2CCNC(=O)[C@H]2CC(C#N)NC(=O)[C@@H]2[C@H]3CCC[C@H]3CN2C1=O` (stereo partly shown) [Example 97] it was greater than 7.00.

`CC(C)(C)OC(=O)N[C@H]1CCCC[C@H]2CCNC(=O)C2C[C@@H](C#N)NC(=O)[C@@H]2[C@H]3CCC[C@H]3CN2C1=O` (stereo partly shown) [Example 98] had a negative logarithm of the IC50 (pIC50) greater than 7.00. In the case of `CC(C)(C)OC(=O)N[C@H]1CC/C=C/[C@H]2CCNC(=O)[C@H]2C[C@@H](C#N)NC(=O)[C@@H]2[C@H]3CCC[C@H]3CN2C1=O` [Example 99], the pIC50 is 4.70 to 6.00.

Consider `CC(C)(C)OC(=O)N[C@H]1CCC[C@H]2CCNC(=O)[C@H]2C[C@@H](C#N)NC(=O)[C@@H]2[C@H]3CCC[C@H]3CN2C1=O` [Example 100], for which the pIC50 was 6.00 to 7.00. In the case of `N#C[C@@H]1C[C@@H]2C(=O)NC[C@@H]2/C=C/CC[C@H](NC(=O)C(F)(F)F)C(=O)N2C[C@@H]3CCC[C@@H]3[C@H]2C(=O)N1` [Example 101] it was greater than 7.00. For `CC(C)(C)OC(=O)N[C@H]1COCCC[C@H]2CNC(=O)[C@H]2C[C@@H](C#N)NC(=O)[C@@H]2[C@@H]3[C@H](CN2C1=O)C3(C)C` [Example 102] the value was greater than 7.00.
